Measured values: patent publication US4520022A, “Substituted vinyl cephalosporins” (priority 1983, dated 1985)
In brackets after ≈: the same amount, converted by molar mass. Like-named read-outs stand apart in the source and are kept apart here.

Tests used:
[1] = tested on: S. aureus Smith; experiment: Protective dose, mice infected with lethal inoculum, oral treatment, S. aureus Smith; type: in vivo; conditions: Staphylococcus aureus, po, 120 h, read-out: Protective dose (PD50), S. aureus Smith
[2] = tested on: Gp Ib: S. aureus 193, BX-1633-2 A9606, A15092, Russell, A9602; conditions: Staphylococcus aureus
[3] = in vivo; conditions: mouse; for half-life: T1/2
[4] = tested on: Gp Ia: S. aureus Smith A9537, A9497, Terajima, A9534, A9601; conditions: Staphylococcus aureus, read-out: Minimum Inhibitory Concentration Gp Ia, Mueller-Hinton agar, average of five organisms
[5] = tested on: E. coli Juhl; experiment: Protective dose, mice infected with lethal inoculum, oral treatment, E. coli Juhl; type: in vivo; conditions: Escherichia coli, po, 120 h, read-out: Protective dose (PD50), E. coli Juhl
[6] = tested on: S. pyogenes; experiment: In vitro activity against Streptococci (MIC), S. pyogenes; type: cell-based; conditions: Streptococcus pyogenes, Compound 9 lot 2
[7] = tested on: S. pneumoniae; experiment: In vitro activity against Streptococci (MIC), S. pneumoniae; type: cell-based; conditions: Streptococcus pneumoniae, Compound 9 lot 2
[8] = tested on: N. meningitidis; experiment: In vitro activity against Neisseria (MIC), N. meningitidis; type: cell-based
[9] = tested on: N. gonorrheae; experiment: In vitro activity against Neisseria (MIC), N. gonorrheae; type: cell-based
[10] = tested on: H. influenzae; experiment: In vitro activity against Haemophilis (MIC), H. influenzae; type: cell-based; conditions: Haemophilus influenzae, Compound 9 lot 2
[11] = mouse, in vivo, po
[12] = oral, 50% survival for 5 days, groups of 5 mice
[13] = read-out: Minimum Inhibitory Concentration Gp Ib, Mueller-Hinton agar, run 1, average of five organisms

Compound: CC/C=C\C1=C(C(=O)[O-])N2C(=O)[C@@H](NC(=O)[C@H](N)c3ccc(O)cc3)[C@H]2SC1.[Na+]
- ED50 [1]: 0.32 mg/kg
- MIC ([2]; read-out: Minimum Inhibitory Concentration Gp Ib): 1.4 µg/mL
- AUC ([3]; im, 20 mg/kg, AUC*, Run 1, * mean of 3 runs): 20000 ng·h/mL
- Cmax ([3]; im, 20 mg/kg): 25000 ng/mL
- half-life ([3]; im, 20 mg/kg): 0.74 h
- AUC ([3]; po, 20 mg/kg, AUC*, Run 1, * mean of 3 runs): 41000 ng·h/mL
- Cmax ([3]; po, 20 mg/kg): 13000 ng/mL
- half-life ([3]; po, 20 mg/kg): 2 h
- AUC ([3]; po, 100 mg/kg, AUC): 150000 ng·h/mL
- Cmax ([3]; po, 100 mg/kg): 51000 ng/mL
- half-life ([3]; po, 100 mg/kg): 1.9 h
- MIC ([4]; run 1): 0.4 µg/mL
- ED50 [5]: 3 mg/kg

Compound: C/C=C/C1=C(C(=O)O)N2C(=O)[C@@H](NC(=O)[C@H](N)c3ccc(O)cc3)[C@H]2SC1 [Compound 8, 7β-[D-2-Amino-2-(p-hydroxyphenyl)acetamido]-3-[(E)-1-propen-1-yl]-3-cephem-4-carboxylic Acid]
- ED50 [1, 12]: 0.2 mg/kg
- MIC [2, 13]: 1.4 µg/mL (≈ 3.59 µM)
- AUC ([3]; im, 20 mg/kg, AUC*): 31000 ng·h/mL
- Cmax ([3]; im, 20 mg/kg): 31000 ng/mL
- half-life ([3]; im, 20 mg/kg): 0.63 h
- AUC ([3]; po, 20 mg/kg, AUC*): 22000 ng·h/mL
- Cmax ([3]; po, 20 mg/kg): 10000 ng/mL
- half-life ([3]; po, 20 mg/kg): 1.3 h
- AUC ([3]; po, 100 mg/kg, AUC): 69000 ng·h/mL
- Cmax ([3]; po, 100 mg/kg): 30000 ng/mL
- half-life ([3]; po, 100 mg/kg): 1.4 h
- MIC ([4]; run 1): 0.26 µg/mL (≈ 0.668 µM)
- ED50 [5, 12]: 7.5 mg/kg

Compound: C=CC1=C(C(=O)O)N2C(=O)[C@@H](NC(=O)[C@H](N)c3ccc(O)cc3)[C@H]2SC1 [Compound 11]
- ED50 [1, 12]: 0.18 mg/kg
- MIC [2, 13]: 1.2 µg/mL (≈ 3.2 µM)
- AUC ([3]; im, 20 mg/kg, AUC*): 15000 ng·h/mL
- Cmax ([3]; im, 20 mg/kg): 23000 ng/mL
- half-life ([3]; im, 20 mg/kg): 0.37 h
- AUC ([3]; po, 20 mg/kg, AUC*): 13000 ng·h/mL
- Cmax ([3]; po, 20 mg/kg): 11000 ng/mL
- half-life ([3]; po, 20 mg/kg): 1.4 h
- AUC ([3]; po, 100 mg/kg, AUC): 49000 ng·h/mL
- Cmax ([3]; po, 100 mg/kg): 43000 ng/mL
- half-life ([3]; po, 100 mg/kg): 1.2 h
- MIC ([4]; run 1): 0.4 µg/mL (≈ 1.07 µM)
- ED50 [5, 12]: 3.8 mg/kg

Compound: N[C@@H](C(=O)N[C@@H]1C(=O)N2C(C(=O)O)=C(/C=C\Cc3ccccc3)CS[C@H]12)c1ccc(O)cc1 [Compound 15, 7β-[D-2-Amino-2-(p-hydroxyphenyl)acetamido]-3-[(Z)-3-phenyl-1-propen-1-yl]-3-cephem-4-carboxylic acid]
- MIC [2, 13]: 0.7 µg/mL (≈ 1.5 µM)
- MIC ([6]; S. pyogenes A9604, read-out: MIC): 0.2 µg/mL (≈ 0.43 µM)
- MIC ([6]; S. pyogenes A15040, read-out: MIC): 0.2 µg/mL (≈ 0.43 µM)
- MIC ([6]; S. pyogenes A20065, read-out: MIC): 0.2 µg/mL (≈ 0.43 µM)
- MIC ([6]; S. pyogenes A20201, read-out: MIC): 0.2 µg/mL (≈ 0.43 µM)
- MIC ([6]; S. pyogenes Dick, read-out: MIC): 0.2 µg/mL (≈ 0.43 µM)
- MIC ([6]; S. pyogenes S-23, Dick, A9604, A20065, A15040, read-out: MIC, Geometric Mean): 0.2 µg/mL (≈ 0.43 µM)
- MIC ([6]; S. pyogenes S-23, read-out: MIC): 0.2 µg/mL (≈ 0.43 µM)
- MIC ([7]; S. pneumoniae A9585, read-out: MIC): 0.4 µg/mL (≈ 0.859 µM)
- MIC ([7]; S. pneumoniae A15069, read-out: MIC): 0.2 µg/mL (≈ 0.43 µM)
- MIC ([7]; S. pneumoniae A20759, read-out: MIC): 0.4 µg/mL (≈ 0.859 µM)
- MIC ([7]; S. pneumoniae Type I, read-out: MIC): 0.2 µg/mL (≈ 0.43 µM)
- MIC ([7]; S. pneumoniae Type II, I, III, A9585, A15069, read-out: MIC, Geometric Mean): 0.23 µg/mL (≈ 0.494 µM)
- MIC ([7]; S. pneumoniae Type II, read-out: MIC): 0.2 µg/mL (≈ 0.43 µM)
- MIC ([7]; S. pneumoniae Type III, read-out: MIC): 0.2 µg/mL (≈ 0.43 µM)
- MIC ([8]; N. meningitidis A21487, Compound 9 lot 2): > 100 µg/mL
- MIC ([8]; N. meningitidis A21496, Compound 9 lot 2): > 100 µg/mL
- MIC ([8]; N. meningitidis A21497, Compound 9 lot 2): > 100 µg/mL
- MIC ([8]; Neisseria meningitidis, read-out: MIC): > 100 µg/mL
- MIC ([8]; Neisseria meningitidis, read-out: MIC, Geometric Mean): > 100 µg/mL
- AUC ([3]; im, 20 mg/kg, AUC*): 52000 ng·h/mL
- Cmax ([3]; im, 20 mg/kg): 31000 ng/mL
- half-life ([3]; im, 20 mg/kg): 0.99 h
- AUC ([3]; po, 20 mg/kg, AUC*): 38000 ng·h/mL
- Cmax ([3]; po, 20 mg/kg): 12000 ng/mL
- half-life ([3]; po, 20 mg/kg): 2.7 h
- AUC ([3]; po, 100 mg/kg, AUC): 81000 ng·h/mL
- Cmax ([3]; po, 100 mg/kg): 41000 ng/mL
- half-life ([3]; po, 100 mg/kg): 2.7 h
- MIC ([9]; N. gonorrheae A20142, Compound 9 lot 2): > 100 µg/mL
- MIC ([9]; N. gonorrheae A20143, Compound 9 lot 2): > 100 µg/mL
- MIC ([9]; N. gonorrheae A20154, Compound 9 lot 2): > 100 µg/mL
- MIC ([9]; N. gonorrheae A20155, Compound 9 lot 2): > 100 µg/mL
- MIC ([9]; read-out: MIC): > 100 µg/mL
- MIC ([9]; read-out: MIC, Geometric Mean): > 100 µg/mL
- MIC ([4]; run 1): 0.2 µg/mL (≈ 0.43 µM)
- MIC ([10]; H. influenzae A9729, read-out: MIC): > 100 µg/mL
- MIC ([10]; H. influenzae A9833, read-out: MIC): > 100 µg/mL
- MIC ([10]; H. influenzae A20177, read-out: MIC): > 100 µg/mL
- MIC ([10]; H. influenzae A20193, read-out: MIC): > 100 µg/mL
- MIC ([10]; H. influenzae A21523, read-out: MIC): > 100 µg/mL
- MIC ([10]; H. influenzae A22157, read-out: MIC): 25 µg/mL (≈ 53.7 µM)
- MIC ([10]; H. influenzae A22481, read-out: MIC): 25 µg/mL (≈ 53.7 µM)
- MIC ([10]; H. influenzae A22482, read-out: MIC): > 100 µg/mL
- MIC ([10]; H. influenzae A22483, read-out: MIC): > 100 µg/mL
- MIC ([10]; H. influenzae A22491, read-out: MIC): 25 µg/mL (≈ 53.7 µM)
- MIC ([10]; H. influenzae, seven strains above, read-out: MIC, Geometric Mean): > 100 µg/mL

Compound: COC/C=C\C1=C(C(=O)O)N2C(=O)[C@@H](NC(=O)[C@H](N)c3ccc(O)cc3)[C@H]2SC1 [Compound 17, 7β-[D-2-Amino-2-(p-hydroxyphenyl)acetamido]-3-[(Z)-3-methoxy-1-propen-1-yl]-3-cephem-4-carboxylic Acid]
- MIC [2, 13]: 2.1 µg/mL (≈ 5.01 µM)
- AUC ([3]; im, 20 mg/kg, AUC*): 19000 ng·h/mL
- Cmax ([3]; im, 20 mg/kg): 24000 ng/mL
- half-life ([3]; im, 20 mg/kg): 0.6 h
- AUC ([3]; po, 20 mg/kg, AUC*): 28000 ng·h/mL
- Cmax ([3]; po, 20 mg/kg): 18000 ng/mL
- half-life ([3]; po, 20 mg/kg): 1.6 h
- AUC ([3]; po, 100 mg/kg, AUC): 197000 ng·h/mL
- Cmax ([3]; po, 100 mg/kg): 73000 ng/mL
- half-life ([3]; po, 100 mg/kg): 1.7 h
- MIC ([4]; run 1): 0.53 µg/mL (≈ 1.26 µM)

Compound: N[C@@H](C(=O)N[C@@H]1C(=O)N2C(C(=O)O)=C(C=CCSc3cnn[nH]3)CS[C@H]12)c1ccc(O)cc1 [Compound 21, 7β-[D-2-Amino-2-(p-hydroxyphenyl)acetamido]-3-[3-(1H-1,2,3-triazol-5-yl)thio-1-propen-1-yl]-3-cephem-4-carboxylic Acid]
- MIC [2, 13]: 2.7 µg/mL (≈ 5.53 µM)
- oral absorption [11]: Uniformly good oral absorption is reflected except for Compound No. 21
- AUC ([3]; im, 20 mg/kg, AUC*): 9600 ng·h/mL
- Cmax ([3]; im, 20 mg/kg): 16000 ng/mL
- half-life ([3]; im, 20 mg/kg): 0.54 h
- AUC ([3]; po, 20 mg/kg, AUC*): 6600 ng·h/mL
- Cmax ([3]; po, 20 mg/kg): 1700 ng/mL
- half-life ([3]; po, 20 mg/kg): 2.6 h
- AUC ([3]; po, 100 mg/kg, AUC): 19000 ng·h/mL
- Cmax ([3]; po, 100 mg/kg): 4400 ng/mL
- half-life ([3]; po, 100 mg/kg): 3.2 h
- MIC ([4]; run 1): 0.61 µg/mL (≈ 1.25 µM)

Compound: C/C=C\C1=C(C(=O)O)N2C(=O)[C@@H](NC(=O)[C@H](N)c3ccc(O)c(Cl)c3)[C@H]2SC1 [Compound 32, 7β-[D-2-Amino-2-(3-chloro-4-hydroxyphenyl)acetamido]-3-[(Z)-1-propen-1-yl]-3-cephem-4-carboxylic acid]
- ED50 [1, 12]: 0.17 mg/kg
- MIC ([2]; read-out: Minimum Inhibitory Concentration Gp Ib, Mueller-Hinton agar, run 2, average of five organisms): 0.53 µg/mL (≈ 1.25 µM)
- AUC ([3]; im, 20 mg/kg, AUC*): 13000 ng·h/mL
- Cmax ([3]; im, 20 mg/kg): 21000 ng/mL
- half-life ([3]; im, 20 mg/kg): 0.48 h
- AUC ([3]; po, 20 mg/kg, AUC*): 13000 ng·h/mL
- Cmax ([3]; po, 20 mg/kg): 7900 ng/mL
- half-life ([3]; po, 20 mg/kg): 1.7 h
- AUC ([3]; po, 100 mg/kg, AUC): 37000 ng·h/mL
- Cmax ([3]; po, 100 mg/kg): 25000 ng/mL
- half-life ([3]; po, 100 mg/kg): 1.7 h
- MIC ([4]; run 2): 0.13 µg/mL (≈ 0.307 µM)
- ED50 [5, 12]: 3.04 mg/kg
